Test results as given in patent US12281122B1, “PI3K inhibitors” (Cogent Biosciences, Inc., priority 2023, dated 2025).

Key:
[1] = tested on: T47D (PI3Kα-H1047R) cell line; test: HTRF phospho-AKT(S473) cell assay in T47D cells; type: cell-based, human
Method in brief: (§1)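 T47D: RPMI + 10% FBS + 0.2 units/mL insulin, top 5 μM. SKBR3: McCoy's 5A + 10% FBS, top 10 μM, 70 ng/ml PDGF-BB last 15 min. Both: 12-pt 1:3, 2 h, 37° C, max 0.5% DMSO; HTRF pAKT(S473); IC50.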

[2] = tested on: SKBR3 (PI3Kα-Wild Type) cell line; test: HTRF phospho-AKT(S473) cell assay in SKBR3 cells; type: cell-based, human
Method in brief: as §1

[3] = Homo sapiens; T47D (PI3Kα-H1047R) cells, HTRF phospho-AKT(S473), 2 hours compound incubation
[4] = Homo sapiens, SK-BR-3; SKBR3 (PI3Kα-Wild Type) cells, HTRF phospho-AKT(S473), 2 hours compound incubation, PDGF-BB stimulated
[5] = Homo sapiens; HTRF phospho-AKT(S473), T47D (PI3Kα-H1047R) cells, 2 hours compound incubation
[6] = Homo sapiens, SK-BR-3; HTRF phospho-AKT(S473), SKBR3 (PI3Kα-Wild Type) cells, 2 hours compound incubation, PDGF-BB stimulated

Row | SMILES | IC50 [1, 3] | IC50 [2, 4] | IC50 [1, 5] | IC50 [2, 6]
1 | COc1cnc(C2CCN(c3nc4c([C@@H](C)Nc5ccc(Cl)nc5C(=O)NS(C)(=O)=O)cc(C)cc4c(=O)n3C)CC2)cn1 [Compound 408, (R)-6-chloro-3-((1-(2-(4-(5-methoxypyrazin-2-yl)piperidin-1-yl)-3,6-dimethyl-4-oxo-3,4-dihydroquinazolin-8-yl)ethyl)amino)-N-(methylsulfonyl) picolinamide] | < 250 nM | ≥ 5000 nM | – | –
2 | Cc1cc([C@@H](C)Nc2ccc(Cl)nc2C(=O)NS(C)(=O)=O)c2nc(N3CCC[C@H](c4ccc(N)cn4)C3)n(C)c(=O)c2c1 (relative stereo) [Compound 307, 3-(((R)-1-(2-((R*)-3-(5-aminopyridin-2-yl)piperidin-1-yl)-3,6-dimethyl-4-oxo-3,4-dihydroquinazolin-8-yl)ethyl)amino)-6-chloro-N-(methylsulfonyl) picolinamide] | < 250 nM | ≥ 5000 nM | – | –
3 | COc1ccccc1-n1ncc2c1CN(c1nc3c([C@@H](C)Nc4ccc(Cl)nc4C(=O)NS(C)(=O)=O)cc(C)cc3c(=O)n1C)C2 [Compound 326, (R)-6-chloro-3-((1-(2-(1-(2-methoxyphenyl)-4,6-dihydropyrrolo[3,4-c]pyrazol-5(1H)-yl)-3,6-dimethyl-4-oxo-3,4-dihydroquinazolin-8-yl)ethyl)amino)-N-(methylsulfonyl) picolinamide] | < 250 nM | 1000 to 5000 nM | – | –
4 | Cc1cc([C@@H](C)Nc2ccc(Cl)nc2C(=O)NS(C)(=O)=O)c2nc(C3CCN(c4cnn(C)c4)CC3)n(C)c(=O)c2c1 [Compound 227, (R)-6-chloro-3-((1-(3,6-dimethyl-2-(1-(1-methyl-1H-pyrazol-4-yl)piperidin-4-yl)-4-oxo-3,4-dihydroquinazolin-8-yl)ethyl)amino)-N-(methylsulfonyl) picolinamide] | < 250 nM | 1000 to 5000 nM | – | –
5 | C[C@@H](Nc1ccc(Cl)nc1C(=O)NS(C)(=O)=O)c1cc(F)cc2c(=O)n(C)c(N3CC[C@H](Oc4cnn(C)c4)C3)nc12 [Compound 388, 6-chloro-3-(((R)-1-(6-fluoro-3-methyl-2-((S)-3-((1-methyl-1H-pyrazol-4-yl)oxy)pyrrolidin-1-yl)-4-oxo-3,4-dihydroquinazolin-8-yl)ethyl)amino)-N-(methylsulfonyl) picolinamide] | < 250 nM | 1000 to 5000 nM | – | –
6 | Cc1cc([C@@H](C)Nc2ccc(Cl)nc2C(=O)NS(C)(=O)=O)c2nc(N3[C@@H]4CC[C@H]3C[C@@H](c3ccn(C)n3)C4)n(C)c(=O)c2c1 [Compound 340, 6-chloro-3-(((R)-1-(3,6-dimethyl-2-((1R,3R,5S)-3-(1-methyl-1H-pyrazol-3-yl)-8-azabicyclo[3.2.1]octan-8-yl)-4-oxo-3,4-dihydroquinazolin-8-yl)ethyl)amino)-N-(methylsulfonyl) picolinamide] | 250 to 500 nM | ≥ 5000 nM | – | –
7 | Cc1cc([C@@H](C)Nc2ccc(Cl)nc2C(=O)NS(C)(=O)=O)c2nc(N3CCC[C@@H](c4cc[nH]n4)C3)n(C)c(=O)c2c1 (relative stereo) [Compound 218, 3-(((R)-1-(2-((R*)-3-(1H-pyrazol-3-yl)piperidin-1-yl)-3,6-dimethyl-4-oxo-3,4-dihydroquinazolin-8-yl)ethyl)amino)-6-chloro-N-(methylsulfonyl) picolinamide] | < 250 nM | 1000 to 5000 nM | – | –
8 | Cc1cc([C@@H](C)Nc2ccc(Cl)nc2C(=O)NS(C)(=O)=O)c2nc(N3CCc4c(cnn4CC(F)(F)F)C3)n(C)c(=O)c2c1 [Compound 221, (R)-6-chloro-3-((1-(3,6-dimethyl-4-oxo-2-(1-(2,2,2-trifluoroethyl)-1,4,6,7-tetrahydro-5H-pyrazolo[4,3-c]pyridin-5-yl)-3,4-dihydroquinazolin-8-yl)ethyl)amino)-N-(methylsulfonyl) picolinamide] | < 250 nM | 1000 to 5000 nM | – | –

Second part, the compound after the results:

Row | IC50 [1, 3] | IC50 [2, 4] | IC50 [1, 5] | IC50 [2, 6] | SMILES
9 | – | – | < 250 nM | 1000 to 5000 nM | Cc1cc([C@@H](C)Nc2ccc(Cl)nc2C(=O)NS(C)(=O)=O)c2nc(N3CCC(c4cc(C)on4)CC3)n(C)c(=O)c2c1 [Compound 571, (R)-6-chloro-3-((1-(3,6-dimethyl-2-(4-(5-methylisoxazol-3-yl)piperidin-1-yl)-4-oxo-3,4-dihydroquinazolin-8-yl)ethyl)amino)-N-(methylsulfonyl) picolinamide]
10 | < 250 nM | 1000 to 5000 nM | – | – | Cc1cc([C@@H](C)Nc2ccc(Cl)nc2C(=O)NS(C)(=O)=O)c2nc(N3C[C@@H]4[C@H](C3)[C@H]4c3cncc(C)n3)n(C)c(=O)c2c1 [Compound 418, 6-chloro-3-(((R)-1-(3,6-dimethyl-2-((1R,5S,6R)-6-(6-methylpyrazin-2-yl)-3-azabicyclo[3.1.0]hexan-3-yl)-4-oxo-3,4-dihydroquinazolin-8-yl)ethyl)amino)-N-(methylsulfonyl) picolinamide]
11 | – | – | 500 to 1000 nM | ≥ 5000 nM | Cc1cc([C@@H](C)Nc2ccc(Cl)nc2C(=O)NS(C)(=O)=O)c2nc(C3CCCN(c4ncc(F)cn4)C3)n(C)c(=O)c2c1 (mixture of isomers) [Compound 748, 6-chloro-3-(((1R)-1-(2-(1-(5-fluoropyrimidin-2-yl)piperidin-3-yl)-3,6-dimethyl-4-oxo-3,4-dihydroquinazolin-8-yl)ethyl)amino)-N-(methylsulfonyl) picolinamide]
12 | – | – | < 250 nM | 1000 to 5000 nM | Cc1cc([C@@H](C)Nc2ccc(Cl)nc2C(=O)NS(C)(=O)=O)c2nc(-c3ccc4nc(C)oc4c3)n(C)c(=O)c2c1 [Compound 789, (R)-6-chloro-3-((1-(3,6-dimethyl-2-(2-methylbenzo[d]oxazol-6-yl)-4-oxo-3,4-dihydroquinazolin-8-yl)ethyl)amino)-N-(methylsulfonyl) picolinamide]
13 | – | – | 250 to 500 nM | ≥ 5000 nM | Cc1cc([C@@H](C)Nc2ccc(Cl)nc2C(=O)NS(C)(=O)=O)c2nc(N3C[C@@H]4[C@H](C3)[C@H]4c3cnn(C4CC4)n3)n(C)c(=O)c2c1 [Compound 559, 6-chloro-3-(((R)-1-(2-((1R,5S,6R)-6-(2-cyclopropyl-2H-1,2,3-triazol-4-yl)-3-azabicyclo[3.1.0]hexan-3-yl)-3,6-dimethyl-4-oxo-3,4-dihydroquinazolin-8-yl)ethyl)amino)-N-(methylsulfonyl) picolinamide]
14 | – | – | 250 to 500 nM | ≥ 5000 nM | COc1cc(N2CCN(c3nc4c([C@@H](C)Nc5ccc(Cl)nc5C(=O)NS(C)(=O)=O)cc(C)cc4c(=O)n3C)CC2)nc(C)n1 [Compound 718, (R)-6-chloro-3-((1-(2-(4-(6-methoxy-2-methylpyrimidin-4-yl)piperazin-1-yl)-3,6-dimethyl-4-oxo-3,4-dihydroquinazolin-8-yl)ethyl)amino)-N-(methylsulfonyl) picolinamide]
15 | – | – | 250 to 500 nM | ≥ 5000 nM | Cc1cc([C@@H](C)Nc2ccc(Cl)nc2C(=O)NS(C)(=O)=O)c2nc(N3CCC(c4nn(C(F)F)cc4F)CC3)n(C)c(=O)c2c1 [Compound 463, (R)-6-chloro-3-((1-(2-(4-(1-(difluoromethyl)-4-fluoro-1H-pyrazol-3-yl)piperidin-1-yl)-3,6-dimethyl-4-oxo-3,4-dihydroquinazolin-8-yl)ethyl)amino)-N-(methylsulfonyl) picolinamide]
16 | – | – | < 250 nM | ≥ 5000 nM | Cc1cc([C@@H](C)Nc2ccc(Cl)nc2C(=O)NS(C)(=O)=O)c2nc(N3CCC(c4cc(C)no4)CC3)n(C)c(=O)c2c1 [Compound 539, (R)-6-chloro-3-((1-(3,6-dimethyl-2-(4-(3-methylisoxazol-5-yl)piperidin-1-yl)-4-oxo-3,4-dihydroquinazolin-8-yl)ethyl)amino)-N-(methylsulfonyl) picolinamide]
17 | – | – | < 250 nM | ≥ 5000 nM | Cc1cc([C@@H](C)Nc2ccc(Cl)nc2C(=O)NS(C)(=O)=O)c2nc(N3CCC(c4nc(C)co4)CC3)n(C)c(=O)c2c1 [Compound 545, (R)-6-chloro-3-((1-(3,6-dimethyl-2-(4-(4-methyloxazol-2-yl)piperidin-1-yl)-4-oxo-3,4-dihydroquinazolin-8-yl)ethyl)amino)-N-(methylsulfonyl) picolinamide]
18 | – | – | < 250 nM | ≥ 5000 nM | Cc1cc([C@@H](C)Nc2ccc(Cl)nc2C(=O)NS(C)(=O)=O)c2nc(N3CCC[C@H](c4cnccn4)C3)n(C)c(=O)c2c1 (relative stereo) [Compound 619, 6-chloro-3-(((R)-1-(3,6-dimethyl-4-oxo-2-((R*)-3-(pyrazin-2-yl)piperidin-1-yl)-3,4-dihydroquinazolin-8-yl)ethyl)amino)-N-(methylsulfonyl) picolinamide]
